Test results taken from PMC4527839, “Synergistic Activity of the Plant Defensin HsAFP1 and Caspofungin against Candida albicans Biofilms and Planktonic Cultures” (PLoS ONE, 2015).
Where a name gives a salt, the structure may show the parent alone. Read-outs that look alike come from different tables or passages of the source.

Tests used:
[1] = tested on: C. albicans SC5314 planktonic cultures; assay: Checkerboard assay, planktonic cultures; assay type: cell-based; settings: Candida albicans, antimycotic alone, [rHsAFP1] 0 μM, OD at 490 nm, mean ± SEM, n ≥ 3, read-out: MIC50 CAS or AMB
Excerpt: To test whether rHsAFP1 is as potent as HsAFP1 purified from the seeds of coral bells, we analysed the antifungal activity of both peptides against F. culmorum, following the standard CLSI protocol M28-A2 [50], with minor modifications as previously described by Osborn and colleagues: an inoculum of approximately 10^4 spores/mL of F. culmorum was suspended in half strength PDB and added to a two-fold dilution series of rHsAFP1 in water. Seed-derived HsAFP1 was purified according to the protocol as previously described by Osborn and colleagues. […] The antifungal activity of rHsAFP1 against C. albicans was subsequently analysed according to the standard CLSI protocol M27-A3 [51] with minor modifications: an inoculum of approximately 10^6 cells/mL was suspended in RPMI-1640 medium and added to a two-fold dilution series of rHsAFP1 in water. The DMSO concentration was similar to that in the biofilm assays, i.e. 0.5% DMSO.
(§1) C. albicans biofilms or C. albicans planktonic cultures were grown as described above. […] Synergy was determined by calculating the Fractional Inhibitory Concentration Index (FICI), in which the actual concentration of compound A (i.e. rHsAFP1) in the checkerboard experiment was used, as indicated in Tables 1–3 and 4.
(§2) Data were analysed with GraphPad Prism (GraphPad Software, Inc., CA, USA). […]

[2] = tested on: C. albicans SC5314 biofilms (24 hours-old); assay: Checkerboard assay, biofilm eradication; assay type: cell-based; settings: Candida albicans, antimycotic alone, [rHsAFP1] 0 μM, CTB assay, mean ± SEM, n ≥ 3, read-out: BEC50 CAS or AMB
Experimental: The Biofilm Eradicating Concentration 50 value (BEC50; the minimum concentration required to reduce the viability of the cells in a pre-grown biofilm by 50% as compared to control treatment) of rHsAFP1 was determined using the BEC50 determination assay as described by De Cremer and co-workers. Briefly, a C. albicans SC5314 overnight culture, grown in YPD, was diluted to an optical density (600 nm) of 0.1 in RPMI 1640 medium and 100 μL of this suspension was added to the wells of a round-bottomed microtitre plate (TPP, Tradingen, Switzerland). After 1 h of adhesion, the biofilms were washed with 100 μL PBS to remove non-adherent cells, followed by addition of 100 μL RPMI 1640 medium. The biofilms were allowed to grow for 24 h at 37°C. Next, an rHsAFP1 concentration series in RPMI was added to the biofilms. […] The biofilms were incubated for another 24 h at 37°C, after which they were washed and quantified with CTB as described above.
as §1, §2

[3] = tested on: C. albicans SC5314 biofilms; assay: Checkerboard assay, biofilm formation inhibition; assay type: cell-based; settings: Candida albicans, CTB assay, mean ± SEM
Experimental: The Biofilm Inhibitory Concentration 50 value (BIC50; the minimum concentration required to reduce biofilm formation by 50% as compared to control treatment) of rHsAFP1 was determined using the following antibiofilm assay: a C. albicans SC5314 overnight culture, grown in YPD, was diluted to an optical density (600 nm) of 0.1 in RPMI 1640 medium and 100 μL of this suspension was added to the wells of a round-bottomed microtitre plate (TPP, Tradingen, Switzerland). After 1 h of adhesion at 37°C, the medium was aspirated and the biofilms were washed with 100 μL phosphate-buffered saline (PBS) to remove non-adherent cells. Fresh RPMI 1640 medium, followed by an rHsAFP1 concentration series was added to the biofilms. The DMSO concentration was similar to that in the checkerboard assays, i.e. 0.5%. Biofilms were allowed to grow for 24 h at 37°C and were subsequently washed with PBS and quantified with CellTiter-Blue (CTB; Promega, WI, USA)) by adding 100 μL of CTB diluted 1/10 in PBS to each well. After 1 h of incubation in the dark at 37°C, the fluorescence was measured with a fluorescence spectrometer (λEx/λEm: 535/590 nm). The fluorescence values of the samples were corrected by subtracting the average fluorescence value of the CTB of uninoculated wells (blank). The percentage of surviving biofilm cells was calculated relative to the control treatment (0.5% DMSO).
as §1, with “above. A combination of rHsAFP1 and antimycotic (caspofungin or amphotericin B), two-fold diluted across the columns and rows of a 96-well plate, respectively, was added to the planktonic culture or to the biofilms.” for “above.”
as §2

[4] = tested on: C. albicans and C. glabrata biofilms; design: method as in PMID 24284780; settings: combination with caspofungin; cited from earlier work
[5] = antimycotic alone, [rHsAFP1] 0 μM, n ≥ 3, read-out: BIC50 CAS or AMB

| MIC50 [1] | IC50 [2] | IC50 [3, 5] | IC50 ([3]; CAS alone, [HsLin06] 0 μM, n ≥ 3, read-out: BIC50 CAS) | SMILES | fold reduction of the caspofungin BIC50 [4] |
| --- | --- | --- | --- | --- | --- |
| 0.44 ± 0.06 µM | 1670 ± 300 nM | 1230 ± 150 nM | – | C[C@@H]1[C@H](O)[C@@H](C)/C=C/C=C/C=C/C=C/C=C/C=C/C=C/[C@H](O[C@@H]2O[C@H](C)[C@@H](O)[C@H](N)[C@@H]2O)C[C@@H]2O[C@](O)(C[C@@H](O)C[C@@H](O)[C@H](O)CC[C@@H](O)C[C@@H](O)CC(=O)O[C@H]1C)C[C@H](O)[C@H]2C(=O)O [AMB alone, amphotericin B] | – |
| 0.02 ± 0.01 µM | 400 ± 80 nM | 720 ± 50 nM | 900 ± 50 nM | CC[C@H](C)C[C@H](C)CCCCCCCCC(=O)N[C@H]1C[C@@H](O)[C@@H](NCCN)NC(=O)[C@@H]2[C@@H](O)CCN2C(=O)[C@H]([C@H](O)CCN)NC(=O)[C@H]([C@H](O)[C@@H](O)c2ccc(O)cc2)NC(=O)[C@@H]2C[C@@H](O)CN2C(=O)[C@H]([C@@H](C)O)NC1=O [CAS alone, caspofungin] | – |
| – | – | – | – | CN(C)CCOc1ccc(/C(=C(/CCCl)c2ccccc2)c2ccccc2)cc1 [toremifene citrate] | up to 20 fold |
